{"source": "patent US12371454B2", "about": "“Cyclic peptide compound having Kras inhibitory action” (priority 2019, dated 2025)", "note": "pIC50: −log10 of the molar value. Starred links: 1 amine or outer side, 2 acyl side, 3 side chain; linkers in the order of their positions; H or OH if unused. Positions of bridges follow the written chain, without caps; N, C: chain ends. Non-standard residues stand in square brackets, D forms with d. Residues, ends and D or L forms follow the SMILES beside them. *: point of attachment. hPhe(3,5-F2-4-CF3) = N[C@@H](CCc1cc(F)c(C(F)(F)F)c(F)c1)C(=O)O; hPhe(3-Cl-4-CF3) = N[C@@H](CCc1ccc(C(F)(F)F)c(Cl)c1)C(=O)O; X77 = O=C([C@H](Cc1cc(Br)ccc1Cl)N[*:1])[*:2]; NMePhe(4-Me) = CN[C@@H](Cc1ccc(C)cc1)C(=O)O; NMePhe(4-F) = CN[C@@H](Cc1ccc(F)cc1)C(=O)O; NMedβ3hAla = C[C@H](CC(=O)[*:2])N(C)[*:1]; NMeGly(cPent) = CN[C@H](C(=O)O)C1CCCC1; Pro(4,4-F2) = O=C(O)[C@@H]1CC(F)(F)CN1; dβ3hPip = O=C(C[C@H]1CCCCN1[*:1])[*:2]; NMeY = CN[C@@H](Cc1ccc(O)cc1)C(=O)O; NMeCha = CN[C@@H](CC1CCCCC1)C(=O)O; NMeChg = CN[C@H](C(=O)O)C1CCCCC1; NMeF = CN[C@@H](Cc1ccccc1)C(=O)O; NMeI = CC[C@H](C)[C@H](NC)C(=O)O; NMeD = CN[C@@H](CC(=O)O)C(=O)O; NMeL = CN[C@@H](CC(C)C)C(=O)O; NMeV = CN[C@H](C(=O)O)C(C)C; d(β3hA) = C[C@@H](N)CC(=O)O; NMeAbu = CC[C@H](NC)C(=O)O; Pip = O=C(O)[C@@H]1CCCCN1; NMeA = CN[C@@H](C)C(=O)O; NMeAib = CNC(C)(C)C(=O)O; Nle = CCCC[C@H](N)C(=O)O; Piperidide = C1CCN(*)CC1; dNMeA = CN[C@H](C)C(=O)O; Ac5c = NC1(C(=O)O)CCCC1; Aze = O=C(O)[C@@H]1CCN1; Sar = CNCC(=O)O", "data": [{"biological_target": "T1, Kras and SOS1 (biotin-tagged human Kras loaded with GDP, His-tagged human SOS1) (Homo sapiens, UniProt P01116, G12D)", "T1 construct": "made in house; host or cells: E. coli (stated for Kras only)", "T1 sequence (P01116 1-188 isoform P01116-2 G12D)": "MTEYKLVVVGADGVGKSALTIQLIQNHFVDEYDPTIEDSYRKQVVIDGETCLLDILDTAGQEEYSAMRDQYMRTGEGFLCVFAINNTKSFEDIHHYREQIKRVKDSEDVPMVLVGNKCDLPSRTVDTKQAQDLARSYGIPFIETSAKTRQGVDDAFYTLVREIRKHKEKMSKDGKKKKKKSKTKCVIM", "assay": "Protein-protein interaction inhibition between Kras and SOS1 (KrasGl2D-SOS PPI) using AlphaScreen", "type": "binding", "settings": "AlphaScreen; biotin-tagged human Kras loaded with GDP, His-tagged human SOS1; read-out: KRAS G12D-SOS PPI IC50", "procedure": "Protein-Protein Interaction Inhibition Between Kras and SOS1 (KrasGl2D-SOS PPI) Using AlphaScreen\nProtein-protein interaction inhibition (PPI) between Kras and SOS1 was measured by energy transfer from nickel-conjugated donor beads to streptavidin-conjugated acceptor beads using biotin-tagged human Kras expressed in E. coli and loaded with GDP after purification and His-tagged human SOS1 enzyme. This measurement utilizes the phenomenon in which donor beads are irradiated with light at 680 nm, such that energy is transferred to acceptor beads through singlet oxygen and light at 520-620 nm is detected from the acceptor beads.\nInhibition of binding between K-ras and SOS1 is known to inhibit signaling downstream of Kras.", "values": [{"smiles": "CC[C@H](C)[C@@H]1NC(=O)[C@H](CC(C)C)N(C)C(=O)C[C@@H](C)NC(=O)[C@H](C2CCCC2)N(C)C(=O)C2(CCCC2)NC(=O)[C@@H]2CCCN2C(=O)[C@H](CCc2ccc(C(F)(F)F)c(Cl)c2)NC(=O)[C@@H](C)N(C)C(=O)[C@H](CC2CCCCC2)N(C)C(=O)CN(C)C(=O)CN(C)C1=O", "note": "[Compound 1530] (cyclo([Ac5c][NMeGly(cPent)][d(β3hA)][NMeL]I[Sar][Sar][NMeCha][dNMeA][hPhe(3-Cl-4-CF3)]P))", "pIC50": 6.89}, {"smiles": "CC[C@H](C)[C@@H]1NC(=O)[C@H](C)N(C)C(=O)C[C@@H](C)N(C)C(=O)[C@H](CC)N(C)C(=O)C(C)(C)N(C)C(=O)[C@@H]2CCCN2C(=O)[C@H](CCc2ccc(C(F)(F)F)c(Cl)c2)NC(=O)CN(C)C(=O)[C@H](CC2CCCCC2)N(C)C(=O)[C@@H]2CCN2C(=O)[C@H](C)N(C)C1=O", "note": "[Compound 2154] (cyclo([Aze][NMeCha][Sar][hPhe(3-Cl-4-CF3)]P[NMeAib][NMeAbu][NMedβ3hAla][NMeA]I[NMeA]))", "pIC50": 7.48}, {"smiles": "CC[C@H](C)[C@@H]1NC(=O)[C@H](CC(C)C)N(C)C(=O)C[C@@H](C(=O)N2CCCCC2)N(C)C(=O)[C@H](C2CCCCC2)N(C)C(=O)C2(CCCC2)NC(=O)[C@@H]2CCCCN2C(=O)[C@H](CCc2ccc(C(F)(F)F)c(Cl)c2)NC(=O)CN(C)C(=O)[C@H](CC2CCCCC2)N(C)C(=O)CN(C)C(=O)CN(C)C1=O", "note": "[Compound 728] ([NMeL]I[Sar][Sar][NMeCha][Sar][hPhe(3-Cl-4-CF3)][Pip][Ac5c][NMeChg][NMeD]-Piperidide; lactam N-11)", "pIC50": 7.80}, {"smiles": "CC[C@H](C)[C@@H]1NC(=O)[C@H](CC(C)C)N(C)C(=O)C[C@@H](C(=O)N(C)C)N(C)C(=O)[C@H](C2CCCC2)N(C)C(=O)C2(CCCC2)NC(=O)[C@@H]2CC(F)(F)CN2C(=O)[C@H](CCc2cc(F)c(C(F)(F)F)c(F)c2)NC(=O)CN(C)C(=O)[C@H](CC2CCCCC2)N(C)C(=O)[C@@H]2CCN2C(=O)[C@H](C)N(C)C1=O", "note": "[Compound 1346] ([NMeL]I[NMeA][Aze][NMeCha][Sar][hPhe(3,5-F2-4-CF3)][Pro(4,4-F2)][Ac5c][NMeGly(cPent)][NMeD]-NMe2; lactam N-11)", "pIC50": 9.22}, {"smiles": "CC[C@H](C)[C@@H]1NC(=O)[C@H](C)N(C)C(=O)C[C@@H](C(=O)N2CCCCC2)N(C)C(=O)[C@H](C(C)C)N(C)C(=O)C2(CCCC2)NC(=O)[C@@H]2CCCN2C(=O)[C@H](CCc2ccc(C(F)(F)F)c(Cl)c2)NC(=O)[C@@H](C)N(C)C(=O)[C@H](Cc2ccc(F)cc2)N(C)C(=O)[C@@H]2CCCN2C(=O)CN(C)C1=O", "note": "[Compound 1853] ([NMeA]I[Sar]P[NMePhe(4-F)][dNMeA][hPhe(3-Cl-4-CF3)]P[Ac5c][NMeV][NMeD]-Piperidide; lactam N-11)", "pIC50": 8.05}, {"smiles": "CC[C@H](C)[C@@H]1NC(=O)[C@H](CC(C)C)N(C)C(=O)C[C@H]2CCCCN2C(=O)[C@H]([C@@H](C)CC)N(C)C(=O)C2(CCCC2)NC(=O)[C@@H]2CCCN2C(=O)[C@H](CCc2ccc(C(F)(F)F)c(Cl)c2)NC(=O)CN(C)C(=O)[C@H](Cc2ccc(C)cc2)N(C)C(=O)[C@@H]2CCN2C(=O)[C@H](C)N(C)C1=O", "note": "[Compound 1912] (cyclo([Ac5c][NMeI][dβ3hPip][NMeL]I[NMeA][Aze][NMePhe(4-Me)][Sar][hPhe(3-Cl-4-CF3)]P))", "pIC50": 7.57}, {"smiles": "CCCC[C@@H]1NC(=O)[C@H](Cc2cc(Br)ccc2Cl)NC(=O)CN(C)C(=O)[C@H](Cc2ccc(OC)cc2)N(C)C(=O)[C@@H]2CCN2C(=O)[C@H](C)N(C)C(=O)[C@H]([C@@H](C)CC)NC(=O)[C@H](CC)N(C)C(=O)C[C@@H](C(=O)N2CCCCC2)N(C)C(=O)[C@H](CC(C)C)NC(=O)C(C)(C)N(C)C1=O", "note": "[Compound 1212] ([NMeAbu]I[NMeA][Aze][NMeY](Me)[Sar][X77][Nle][NMeAib]L[NMeD]-Piperidide; lactam N-11)", "pIC50": 6.92}, {"smiles": "CC[C@H](C)[C@@H]1NC(=O)[C@H](CC(C)C)N(C)C(=O)C[C@@H](C(=O)N(C)C)N(C)C(=O)[C@H]([C@@H](C)CC)N(C)C(=O)C2(CCCC2)NC(=O)[C@@H]2CCCN2C(=O)[C@H](CCc2ccc(C(F)(F)F)c(Cl)c2)NC(=O)CN(C)C(=O)[C@H](CC2CCCCC2)N(C)C(=O)[C@@H]2CCN2C(=O)[C@H](C)N(C)C1=O", "note": "[Compound 1858] ([NMeL]I[NMeA][Aze][NMeCha][Sar][hPhe(3-Cl-4-CF3)]P[Ac5c][NMeI][NMeD]-NMe2; lactam N-11)", "pIC50": 8.96}, {"smiles": "CC[C@H](C)[C@@H]1NC(=O)[C@H](C)N(C)C(=O)C[C@@H](C)NC(=O)[C@H](C2CCCC2)N(C)C(=O)C2(CCCC2)NC(=O)[C@@H]2CCCN2C(=O)[C@H](CCc2ccc(C(F)(F)F)c(Cl)c2)NC(=O)[C@@H](C)N(C)C(=O)[C@H](Cc2ccccc2)N(C)C(=O)CN(C)C(=O)CN(C)C1=O", "note": "[Compound 482] (cyclo([Ac5c][NMeGly(cPent)][d(β3hA)][NMeA]I[Sar][Sar][NMeF][dNMeA][hPhe(3-Cl-4-CF3)]P))", "pIC50": 6.77}]}]}
